From patent US10517933B2, “Method of treating androgen receptor negative prostate tumors and their metastases” (DREXEL UNIVERSITY, priority 2015, dated 2019)
Entries after “also recorded” stand apart in the source; their conditions may differ.

Legend:
[1] = test system: mouse models of acute gout; conditions: in vivo; cited from earlier work
[2] = test system: other members of the interleukin-1 family, including interleukin-1 alpha; conditions: cited from earlier work
interleukin-1β = conditions: cited from earlier work
[3] = test system: human bone mesenchymal stem cells; test: induction of Carcinoma Associated Fibroblasts phenotype in human bone mesenchymal stem cells by IL1β or PC3-ML conditioned medium; format: cell-based; conditions: hMSCs exposed to IL1β or conditioned medium from PC3-ML cells
Description: DU-145, 22Rv1. LNCaP, and VCaP human prostate cancer cell lines were purchased from ATCC: the PC3-ML cell line was derived from the parental PC-3 cell line as described in Wang M, Stearns M E, Isolation and characterization of PC-3 human prostatic tumor sublines which preferentially metastasize to select organs in S.C.I.D. mice. Differentiation. 1991; 48:115-25. All cell lines were authenticated by short tandem repeat profiling by IDEXX Radil and/or DDC Medical. Cells were cultured in Dulbecco's Modified Eagle Medium (DU-145, VCaP, and PC3-ML) or RPMI-1460 (22Rv1 and LNCaP) containing 10% fetal bovine serum and 0.1% gentamicin. Bone marrow-derived Human Mesenchymal Stem cells (Lonza) were used between passage 5 and 8 and cultured in α-MEM supplemented with 10% FBS, 1 ng/ml bFGF (R&D), and 0.1% gentamicin. Each cell line was cultured at 37° C. and 5% CO2 and discarded 10 passages following thawing. […]
Cell lysates were obtained and Western Blotting analysis was performed as previously described. […] Chemiluminescent signals were obtained using SuperSignal West Femto substrate (Pierce) and detected with the Fluorochem 8900 imaging system and related software. […]

[4] = test system: AR(−)/IL1β(+) human prostate cancer cells; test: skeletal metastasis model: human prostate cancer cells inoculated via the left cardiac ventricle of mice; format: in vivo, mouse; conditions: subcutaneous anakinra from 24 hours before inoculation, then daily, FIGS. 3A-3B
Description: Male C.B17-SC mice (Taconic) at six to eight weeks of age were anesthetized with ketamine (80 mg/kg) and xylazine (10 mg/kg) prior being inoculated with cancer cells via the left cardiac ventricle. For anakinra treatment, animals received an initial subcutaneous dose of vehicle (PBS) or anakinra (Swedish Orphan Biovitrum) 24 hours prior to cancer cell inoculation, then additional doses at the time of xenograft and daily thereafter until sacrifice.
Prior to each weekly imaging session, animals were injected IP with 150 mg/kg D-Luciferin (PerkinElmer) and allowed to rest for ten minutes, then anesthetized using 3% isoflurane and transferred to the chamber of an IVIS Lumina XR (PerkinElmer), where they received 2% isoflurane throughout image acquisition. […]
Fluorescent images of skeletal metastases were collected as described in Liu et al., 2013, Cancer Res. 73:3297-305. In experiments assessing arrival/colonization of the bone, animals were sacrificed and femora and tibia were imaged and processed using Nuance software and a standardized spectral library and total GFP-positive DTCs counted in the knee joint of each animal. Lung tissues from the same animals were sectioned at 80 μm at intervals across the organ and images of five random fields analyzed as described. […]

Molecule: XOMA-052: a potent anti-IL1β humanized neutralizing antibody
- activity in mouse models of acute gout [1]: active

Molecule: Canakinumab: a human monoclonal antibody targeted at interleukin-1 beta
- cross-reactivity with other members of the interleukin-1 family [2]: no cross-reactivity

Molecule: CSc1ccc(-c2nn(Cc3ccccc3)c(=O)cc2-c2ccc(Cl)cc2)cc1 [K-832, 2-benzyl-5-(4-chlorophenyl)-6-[4-(methylthio)phenyl]-2H-pyridazin-3-one]
- inhibitory activity against production of interleukin-1β (interleukin-1β): high inhibitory activity

Molecule: anakinra: recombinant, non-glycosylated version of human IL1 receptor antagonist prepared from cultures of genetically modified E. coli
- morphological changes in alpha smooth muscle actin (CAF phenotype) ([3]; FIG. 4A): inhibited
- expression of the S100 A4 marker (CAF phenotype) ([3]; FIG. 4B): inhibited
- progression at the skeletal level of human prostate cancer cells (bone metastatic tumor burden) [4]: significantly impaired; also recorded: much less prone to skeletal colonization
